In BindingDB's records for patent WO2025049746 (Eikon Therapeutics, 2025) one finds IC50 data, which are given here for 38 molecules.

The target in test [1] is T1, Bifunctional 3'-5' exonuclease/ATP-dependent helicase WRN [480-1251] (UniProt Q14191).
T1 construct: 480-1251
Nature of the test: Biochemical Activity Assays.

In test [2] the target is Bifunctional 3'-5' exonuclease/ATP-dependent helicase WRN (Homo sapiens, UniProt Q14191). Nature of the test: ADP-Glo Kinase Assay. The procedure: ATPase activity was measured using the ADP-Glo Kinase Assay following the manufacturers recommended protocol.
Chain of Bifunctional 3'-5' exonuclease/ATP-dependent helicase WRN (Q14191 whole entry): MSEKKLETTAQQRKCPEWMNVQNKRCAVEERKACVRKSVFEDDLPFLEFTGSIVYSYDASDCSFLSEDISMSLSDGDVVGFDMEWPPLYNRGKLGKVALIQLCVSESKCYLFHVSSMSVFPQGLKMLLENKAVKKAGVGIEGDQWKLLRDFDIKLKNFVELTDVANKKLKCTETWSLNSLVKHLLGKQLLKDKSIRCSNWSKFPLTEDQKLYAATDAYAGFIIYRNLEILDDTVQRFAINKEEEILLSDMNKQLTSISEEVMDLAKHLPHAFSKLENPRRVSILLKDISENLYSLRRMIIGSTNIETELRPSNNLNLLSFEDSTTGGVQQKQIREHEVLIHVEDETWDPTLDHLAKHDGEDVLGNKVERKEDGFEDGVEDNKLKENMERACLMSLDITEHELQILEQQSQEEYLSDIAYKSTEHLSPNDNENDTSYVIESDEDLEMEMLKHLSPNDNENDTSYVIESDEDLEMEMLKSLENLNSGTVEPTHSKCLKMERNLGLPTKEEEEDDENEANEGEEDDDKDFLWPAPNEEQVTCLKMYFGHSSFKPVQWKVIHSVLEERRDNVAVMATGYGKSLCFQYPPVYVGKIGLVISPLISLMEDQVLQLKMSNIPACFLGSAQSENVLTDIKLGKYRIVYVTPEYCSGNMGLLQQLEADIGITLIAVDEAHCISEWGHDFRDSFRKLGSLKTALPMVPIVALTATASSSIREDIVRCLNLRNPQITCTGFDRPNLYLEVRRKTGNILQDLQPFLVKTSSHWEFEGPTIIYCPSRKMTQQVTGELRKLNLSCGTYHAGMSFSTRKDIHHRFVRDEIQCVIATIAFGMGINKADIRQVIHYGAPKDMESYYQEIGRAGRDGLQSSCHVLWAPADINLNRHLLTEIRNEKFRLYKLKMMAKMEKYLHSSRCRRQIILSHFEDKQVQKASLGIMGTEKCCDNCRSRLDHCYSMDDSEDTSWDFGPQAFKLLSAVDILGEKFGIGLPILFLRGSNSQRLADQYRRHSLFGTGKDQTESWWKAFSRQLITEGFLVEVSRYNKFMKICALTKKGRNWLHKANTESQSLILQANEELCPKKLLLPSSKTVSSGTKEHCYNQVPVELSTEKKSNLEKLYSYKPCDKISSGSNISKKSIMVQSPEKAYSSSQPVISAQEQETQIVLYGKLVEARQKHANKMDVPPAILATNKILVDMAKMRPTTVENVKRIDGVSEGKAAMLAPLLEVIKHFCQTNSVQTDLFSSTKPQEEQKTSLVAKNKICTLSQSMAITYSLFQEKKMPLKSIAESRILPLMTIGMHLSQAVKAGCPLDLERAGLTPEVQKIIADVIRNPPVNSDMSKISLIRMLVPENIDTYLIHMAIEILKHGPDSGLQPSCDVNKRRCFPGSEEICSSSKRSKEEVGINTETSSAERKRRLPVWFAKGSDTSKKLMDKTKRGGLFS

T1 sequence (Q14191 480-1251): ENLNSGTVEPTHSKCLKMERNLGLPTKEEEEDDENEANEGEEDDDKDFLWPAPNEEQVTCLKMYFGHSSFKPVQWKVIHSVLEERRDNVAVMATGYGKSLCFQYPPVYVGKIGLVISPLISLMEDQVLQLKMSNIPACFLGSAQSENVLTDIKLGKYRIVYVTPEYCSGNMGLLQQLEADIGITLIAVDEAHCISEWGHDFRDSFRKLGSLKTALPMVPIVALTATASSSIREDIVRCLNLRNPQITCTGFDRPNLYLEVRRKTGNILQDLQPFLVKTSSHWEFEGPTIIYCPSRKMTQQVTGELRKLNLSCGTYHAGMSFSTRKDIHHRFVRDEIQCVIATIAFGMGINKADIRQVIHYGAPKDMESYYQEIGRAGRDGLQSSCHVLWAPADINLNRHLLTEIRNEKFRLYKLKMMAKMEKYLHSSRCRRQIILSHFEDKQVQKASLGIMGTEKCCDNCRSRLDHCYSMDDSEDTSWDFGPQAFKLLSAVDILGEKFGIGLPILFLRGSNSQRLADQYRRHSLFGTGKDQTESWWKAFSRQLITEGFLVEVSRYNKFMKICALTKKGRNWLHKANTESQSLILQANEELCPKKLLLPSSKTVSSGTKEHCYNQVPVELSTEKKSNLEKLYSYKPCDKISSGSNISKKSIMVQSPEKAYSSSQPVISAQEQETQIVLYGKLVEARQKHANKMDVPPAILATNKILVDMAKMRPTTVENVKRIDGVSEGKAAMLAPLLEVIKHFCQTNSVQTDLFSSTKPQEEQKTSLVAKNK

For the molecule `Cc1ncnc(C(=O)N2CCN(c3c4n(c5nc(-c6ccc7c(c6)COC7(C)C)nn5c3=O)[C@@H](C(=O)Nc3ccc(C(F)(F)F)cc3Cl)C[C@@H]4C)CC2)c1O` [WO2025049746, Example 472], the results for the IC50 in test [1] and in test [2] were 4.94 µM and 3.74 µM, respectively.
In the same order, the values of `CCc1c(N2CCN(C(C)=O)CC2)c(=O)n2nc(-c3ncc(O)cn3)nc2n1CC(=O)Nc1ccc(C(F)(F)F)cc1Cl` [WO2025049746, Example 434] are 0.102 µM and 0.577 µM.
For `CCc1c(N2CCN(C(=O)c3ncnc(C)c3O)CC2)c(=O)n2nc(-c3ccc4c(c3)CCO4)nc2n1CC(=O)Nc1ccc(SC(F)(F)F)cc1Cl` [WO2025049746, Example 410], the IC50 (as a rule, the concentration that gives 50% inhibition) in test [1] was 0.032 µM; in test [2], 0.041 µM.
On to `CCc1c(N2CCN(C(=O)c3ncnc(C)c3O)CC2)c(=O)n2nc(-c3ccn4ncc(C)c4c3)nc2n1CC(=O)Nc1ccc(C(F)(F)F)cc1Cl` [WO2025049746, Example 272], for which the IC50 in test [1] turned out to be 0.028 µM; in test [2] it was 0.027 µM.
Turning to `CCc1c(N2CCN(S(C)(=O)=O)CC2)c(=O)n2nc(C3=CCOCC3)nc2n1CC(=O)Nc1ccc(C(F)(F)F)cc1Cl` [WO2025049746, Example 59], the IC50 was 0.0334 µM in test [1] and 0.0835 µM in test [2].
For `CCc1c(N2CCN(C(=O)c3ncnc(C)c3O)[C@H]3CC[C@H]32)c(=O)n2nc(-c3ccc4c(c3)COC4(C)C)nc2n1CC(=O)Nc1ccc(C(F)(F)F)cc1Cl` [WO2025049746, Example 460] the same measures were 0.045 µM and 0.052 µM.
In the same order, the values of `CCc1c(N2CCN(C(=O)c3ncnc(C)c3O)CC2)c(=O)n2nc(-c3cc(C)c4nn(C)cc4c3)nc2n1CC(=O)Nc1ccc(C(F)(F)F)cc1Cl` [WO2025049746, Example 299] are 0.031 µM and 0.029 µM.
For `CCc1c(N2CCN(C(=O)c3ncnc(C)c3O)CC2)c(=O)n2nc(C3=CCOCC3)nc2n1CC(=O)Nc1ccc(C(F)(F)F)c2cccnc12` [WO2025049746, Example 365] the same measures were 0.044 µM and 0.063 µM.
Consider `CCc1c(N2CCN(C(=O)c3ncnc(C)c3O)CC2)c(=O)n2nc(-c3ccc4c(c3)CCOC4)nc2n1CC(=O)Nc1ccc(SC(F)(F)F)cc1Cl` [WO2025049746, Example 395], for which the values for the IC50 in test [1] and in test [2] were 0.035 µM and 0.043 µM, respectively.
For `CCc1c(N2CCN(C(=O)c3ncnc(C)c3O)CC2)c(=O)n2nc(-c3ccn4c(C)ncc4c3)nc2n1CC(=O)Nc1ccc(C(F)(F)F)cc1Cl` [WO2025049746, Example 218] the same measures were 0.034 µM and 0.044 µM.
For the molecule `Cc1ncnc(C(=O)N2CCN(c3c4n(c5nc(-c6ccc7c(c6)COC7(C)C)nn5c3=O)[C@H](C(=O)Nc3ccc(C(F)(F)F)cc3Cl)C[C@@H]4C)[C@H]3CC[C@@H]32)c1O` [WO2025049746, Example 468], the values for the IC50 in test [1] and in test [2] were 0.0424 µM and 0.0381 µM, respectively.
As for `CCc1c(N2CCN(C(=O)c3ccccc3NS(=O)(=O)C3CC3)CC2)c(=O)n2nc(-c3ccc4c(c3)OCO4)nc2n1CC(=O)Nc1ccc(C(F)(F)F)c2c1CC2` [WO2025049746, Example 111], the IC50 in test [1] came to 0.251 µM; in test [2], 0.308 µM.
In the same order, the values of `CCc1c(N2CCN(C(=O)c3ncnc(C)c3O)CC2)c(=O)n2nc(C3=CCOCC3)nc2n1CC(=O)Nc1ccc(OC(F)(F)Cl)cc1` [WO2025049746, Example 72] are 0.0122 µM and 0.0146 µM.
Turning to `CCc1c(N2CCN(C(=O)c3ncnc(C)c3O)CC2)c(=O)n2nc(-c3ccc([S+](C)[O-])cc3)nc2n1CC(=O)Nc1ccc(C(F)(F)F)cc1Cl` (stereo unspecified) [WO2025049746, Example 333], the IC50 in test [1] and in test [2] was 0.028 µM in each case.
With `CCc1c(N2CCN(C(=O)c3ncnc(C)c3O)CC2)c(=O)n2nc(-c3ccc4c(c3)COC4(C)C)nc2n1CC(=O)Nc1ccc(C(F)(F)F)cc1Cl` [WO2025049746, Example 164], the results for the IC50 in test [1] and in test [2] were 0.045 µM and 0.044 µM, respectively.
Turning to `CCc1c(N2CCN(C(=O)c3nc4n(c(=O)c3OCc3ccccc3)CCOC4)CC2)c(=O)n2nc(N(C)C)nc2n1CC(=O)Nc1ccc(C(F)(F)F)cc1Cl` [WO2025049746, Example 84], the IC50 in test [1] turned out to be 0.0384 µM; in test [2] it was 0.0407 µM.
In the case of `CCc1c(N2CCN(C(=O)c3ncnc(C)c3O)CC2)c(=O)n2nc(C3=CCOCC3)nc2n1CC(=O)NC12CC(C)(C1)C2(F)F` [WO2025049746, Example 371], the IC50 in test [1] was determined as 1.11 µM; in test [2] it was 1.48 µM.
As for `CCc1c(N2CCN(C(=O)c3nocc3O)CC2)c(=O)n2nc(-c3ccc4c(c3)COC4)nc2n1CC(=O)Nc1ccc(C(F)(F)F)cc1Cl` [WO2025049746, Example 439], the IC50 is 0.053 µM in test [1] and 0.05 µM in test [2].
With `CCc1c(N2CCN(C(=O)c3ncnc(C)c3O)CC2)c(=O)n2nc(-c3cnn4c3CCCC4)nc2n1CC(=O)Nc1ccc(C(F)(F)F)cc1Cl` [WO2025049746, Example 167], the IC50 amounted to 0.041 µM in test [1] and 0.06 µM in test [2].
Regarding `CCc1c(N2CCN(C(=O)c3ncnc(C)c3O)CC2)c(=O)n2nc(-c3ccc4c(c3)OCC4)nc2n1CC(=O)Nc1c(Cl)cc(C(F)(F)F)c2c1CC2` [WO2025049746, Example 381], the figures for the IC50 in test [1] and in test [2] were 0.04 µM and 0.055 µM, respectively.
Regarding `CCc1c(N2CCN(C(=O)c3ncnc(C)c3O)CC2)c(=O)n2nc(-c3ccc4c(c3)COC4)nc2n1CC(=O)Nc1ccc(C(F)(F)F)c2c1CC2` [WO2025049746, Example 376], the half-inhibitory concentration (IC50) stood at 0.028 µM in test [1] and 0.036 µM in test [2].
In the same order, the values of `CCc1c(N2CCN(C(=O)c3ncnc(C)c3O)CC2)c(=O)n2nc(C3=CCOCC3)nc2n1CC(=O)Nc1ccc(OC(F)(F)Cl)cc1Cl` [WO2025049746, Example 355] are 0.039 µM and 0.049 µM.
For `Cc1ncnc(C(=O)N2CCN(c3c4n(c5nc(-c6ccc7c(c6)COC7(C)C)nn5c3=O)[C@@H](C(=O)Nc3ccc(C(F)(F)F)cc3Cl)C[C@@H]4C)[C@H]3CC[C@@H]32)c1O` [WO2025049746, Example 466] the same measures were 9.39 µM and over 29.7 µM.
For `CCc1c(N2CCN(C(=O)c3ncnc(C)c3O)CC2)c(=O)n2nc(-c3ccc4c(c3)[C@H](C(F)(F)F)OC4)nc2n1CC(=O)Nc1ccc(C(F)(F)F)cc1Cl` [WO2025049746, Example 277] the same measures were 0.173 µM and 0.176 µM.
As to `CCc1c(N2CCN(C(=O)c3cccn4ccnc34)CC2)c(=O)n2nc(C3=CCOCC3)nc2n1CC(=O)Nc1ccc(C(F)(F)F)cc1Cl` [WO2025049746, Example 50], the IC50 in test [1] worked out at 0.0794 µM; in test [2], 0.156 µM.
In the same order, the values of `CCc1c(N2CCN(C(=O)C3=CCOCC3)CC2)c(=O)n2nc(-c3ncc(O)cn3)nc2n1CC(=O)Nc1ccc(C(F)(F)F)cc1Cl` [WO2025049746, Example 436] are 0.05 µM and 0.103 µM.
As to `CCc1c(N2CCN(C(=O)c3ncnc(C)c3O)CC2)c(=O)n2nc(-c3ccc4c(c3)OCC4)nc2n1CC(=O)Nc1ccc(C(F)(F)F)cc1Cl` [WO2025049746, Example 12], the IC50 in test [1] was found to be 0.0279 µM; in test [2], 0.0349 µM.
In the same order, the values of `Cc1ncnc(C(=O)N2CCN(c3c4n(c5nc(-c6ccc7c(c6)COC7(C)C)nn5c3=O)[C@H](C(=O)Nc3ccc(C(F)(F)F)cc3Cl)C[C@H]4C)[C@H]3CC[C@@H]32)c1O` [WO2025049746, Example 467] are 9.57 µM and over 29.7 µM.
`CCc1c(N2CCN(C(=O)c3ncnc(C)c3O)CC2)c(=O)n2nc(-c3ccc4nc(C)sc4c3)nc2n1CC(=O)Nc1ccc(C(F)(F)F)cc1Cl` [WO2025049746, Example 285]: the results for the IC50 in test [1] and in test [2] were 0.029 µM and 0.026 µM, respectively.
On to `CCc1c(N2CCN(C(=O)c3ncnc(C)c3O)CC2)c(=O)n2nc(-c3ccc4c(c3)OCCN4)nc2n1CC(=O)Nc1ccc(C(F)(F)F)cc1Cl` [WO2025049746, Example 281], for which the IC50 worked out at 0.031 µM in test [1] and 0.027 µM in test [2].
Turning to `CCc1c(N2CCN(C(=O)c3ncnc(C)c3O)CC2)c(=O)n2nc(-c3ccc4c(c3)C[C@@H](OC)C4)nc2n1CC(=O)Nc1ccc(C(F)(F)F)cc1Cl` [WO2025049746, Example 182], the values for the IC50 in test [1] and in test [2] were 0.031 µM and 0.037 µM, respectively.
In the same order, the values of `CCc1c(N2CCN(C(=O)c3ncnc(C)c3O)CC2)c(=O)n2nc(-c3cnc4nccn4c3)nc2n1CC(=O)Nc1ccc(C(F)(F)F)cc1Cl` [WO2025049746, Example 305] are 0.048 µM and 0.048 µM.
For the molecule `CCc1c(N2CCN(C(=O)c3ncnc(C)c3O)CC2)c(=O)n2nc(-c3cccc4c3CCOC4)nc2n1CC(=O)Nc1c(Cl)cc(C(F)(F)F)c2c1CC2` [WO2025049746, Example 389], the IC50 was found to be 0.137 µM in test [1] and 1.17 µM in test [2].
With `CCc1c(N2CCN(C(=O)c3ncnc(C)c3O)CC2)c(=O)n2nc(-c3ccc4n[nH]cc4c3)nc2n1CC(=O)Nc1ccc(C(F)(F)F)cc1Cl` [WO2025049746, Example 258], the values for the IC50 in test [1] and in test [2] were 0.015 µM and 0.016 µM, respectively.
As for `CCc1c(N2CCN(C(=O)c3ncnc(C)c3O)CC2)c(=O)n2nc(-c3cc4c(cnn4C)cc3C)nc2n1CC(=O)Nc1ccc(C(F)(F)F)cc1Cl` [WO2025049746, Example 306], the IC50 in test [1] and in test [2] was 29.7 µM in each case.
For `CCc1c(N2CCN(C(=O)c3ncnc(C)c3O)CC2)c(=O)n2nc(-c3ccc4c(c3)CCO4)nc2n1CC(=O)Nc1ccc(Cl)c(OC(F)F)c1Cl` [WO2025049746, Example 405], the values for the IC50 in test [1] and in test [2] were 0.035 µM and 0.044 µM, respectively.
For `CCc1c(N2CCN(C(=O)c3ncnc(C)c3O)CC2)c(=O)n2nc(-c3ccc4nccnc4c3)nc2n1CC(=O)Nc1ccc(C(F)(F)F)cc1Cl` [WO2025049746, Example 280] the same measures were 0.031 µM and 0.028 µM.
For `CCc1c(N2CCN(C(=O)c3cn(C)nc3O)CC2)c(=O)n2nc(N(C)C)nc2n1CC(=O)Nc1ccc(C(F)(F)F)cc1Cl` [WO2025049746, Example 83] the same measures were 0.0447 µM and 0.0646 µM.
